Source: patent publication US6156790A, “C-10 carbon-substituted artemisinin-like trioxane compounds having antimalarial, antiproliferative and antitumor activities” (priority 1997, dated 2000)

Tests used:
[1] = tested on: P. berghei; conditions: P. berghei-infected mice; cited from earlier work
[2] = tested on: HL-60(TB); assay: cells; conditions: Homo sapiens
[3] = tested on: P388 leukemia; conditions: NCI Report on NSC 369397; cited from earlier work
[4] = stability of pyranosyl fluorides; type: physicochemical; conditions: after purification
From the text: Coupling of either the α-fluoride or the β-fluoride VI with trimethylaluminum in the presence of boron trifluoride-etherate gave 10β-methyl derivative VII where n=1 and R=CH3 with almost complete stereoselectivity, thereby implicating a common oxygen-stabilized C-10 carbocation intermediate. The relative stereochemistry at carbons 9 and 10 was established by the characteristic ^1 H NMR chemical shifts and coupling constants of the methine hydrogen atoms at these positions (J9,10 =10-11 Hz for trans and J9,10 =5.6-6.7 Hz for cis). […] Several dimethyl aluminum acetylides, prepared from Me2 AlCl and the corresponding lithium acetylides, coupled smoothly to form exclusively the 10β-acetylenic derivatives. Di- and tri-methoxylated benzenes and heteroaromatic N-methylpyrrole and furan coupled to produce exclusively, in stereochemical contrast, the 10α-oriented derivatives. Apparently, relatively small nucleophiles approach the intermediate cation from the β-face of the molecule, whereas relatively large aryl and heteroaryl nucleophiles approach from the α-face (i.e. directed by and trans to the C-9 methyl group). Coupling of pyranosyl fluoride VI with N-methylpyrrole proceeded equally well on 400 mg scale as on 20 mg scale, and larger scale executions of this and of the other coupling reactions reported here are not expected to be a problem.

[5] = tested on: murine keratinocyte cell line PE; assay: growth inhibition of PE cells (MTT assay); type: cell-based; conditions: 100 nanomolar
Experimental: To determine the inhibitory effect of the compositions of the present invention on cell proliferation, screening assays were performed on a murine keratinocyte cell line PE. Cell line PE was chosen for its particular sensitivity to the induction of ornithine decarboxylase (ODC) activity by the extensively characterized tumor promoter TPA. […] PE cell culture medium consisted of Eagle's minimal essential medium without calcium chloride (Whittaker Bioproducts, Walkersville, Mass.) supplemented with 8% chelexed fetal calf serum and 1% antibiotic-antimycotic (Gibco BRL) and the addition of CaCl2 to 0.05 mM Ca^++.
Growth Inhibition. Growth curves, shown in FIGS. 1 and 2, for PE cells treated with calcitriol and the C-10 carbon-substituted dimers 21, 22, 26, 27, and 28 generated by assay for the reduction of the tetrazolium-based compound MTT, see Charmichael, et al., Cancer Res., 47:936-942 (1987). […] PE cells were seeded at a density of 5,000 cells/well in 50 μL of medium into 96-well microtiter plates. Twelve hours later, the medium was removed, and cells were treated with 100 μL of fresh medium into which the appropriate amount of calcitrol or analog dissolved in dimethyl sulfoxide (DMSO) had been added, with the concentration of DMSO held constant at 0.1%. […] At 24-hour intervals following the initial treatment of the cells with compounds, 0.1 mg (50 μL of a 2 mg/mL solution) of MTT was added to each well. After 4 hours, the MTT was removed and DMSO added to dissolve the blue formazan dye. Using a microtiter plate reader, the A505 was then determined and cell number calculated from blank-subtracted absorbance values.

[6] = tested on: OVCAR-4; assay: NCI 60 cell line screen (SRB), ovarian cancer; type: cell-based; conditions: Homo sapiens, read-out: Log10 GI50 (converted)

## C[C@@H]1CC[C@H]2[C@@H](C)C(=O)O[C@@H]3O[C@@]4(C)CC[C@@H]1[C@]32OO4 [Artemisinin]
[1]
  SD90 (parasitemia 90 percent suppressed): 6.20 mg/kg
[2]; HL-60, read-out: Log10 GI50 (converted)
  GI50: 55 µM
[2]; HL-60, read-out: Log10 LC50 (converted)
  CC50: > 100 µM
[2]; HL-60, read-out: Log10 TGI
  IC (TGI): 100 µM
[3]
  activity against P388 leukemia: inactive

## C[C@H]1[C@@H](F)O[C@@H]2O[C@@]3(C)CC[C@H]4[C@H](C)CC[C@@H]1[C@@]24OO3 [Compound VI, 10β-Fluorodeoxoartemisinin]
[4]
  stability of solid: stable crystalline solid

## C[C@H]1[C@@H](CC(=O)c2ccc(C(=O)C[C@H]3O[C@@H]4O[C@@]5(C)CC[C@H]6[C@H](C)CC[C@@H]([C@H]3C)[C@@]46OO5)cc2)O[C@@H]2O[C@@]3(C)CC[C@H]4[C@H](C)CC[C@@H]1[C@@]24OO3 [Dimer 21]
[5]
  antiproliferative activity compared with calcitriol: at least as antiproliferative as calcitrol
[6]
  GI50: 1.58 µM
